In PubChem BioAssay (NCI):
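Growth conditions: 96-well plates. Treatment: test compound, 48 hours, 5 concentrations. Analysis: linear interpolation between bracketing concentrations; unreached endpoints set to highest concentration. TGI marks complete inhibition of growth.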

Key:
Assay in all cases: NCI tumour cell line growth inhibition, 48 h
[1] = system: 786-0 renal
[2] = system: A498 renal
[3] = system: A549 NSCLC
[4] = system: ACHN renal
[5] = system: CAKI-1 renal
[6] = system: CCRF-CEM leukemia
[7] = system: COLO 205 colon
[8] = system: DLD-1 colon
[9] = system: DMS 114 small cell lung
[10] = system: DMS 273 small cell lung
[11] = system: EKVX NSCLC
[12] = system: HCC-2998 colon
[13] = system: HCT-116 colon
[14] = system: HCT-15 colon
[15] = system: HL-60(TB) leukemia
[16] = system: HOP-18 NSCLC
[17] = system: HOP-62 NSCLC
[18] = system: HOP-92 NSCLC
[19] = system: HT29 colon
[20] = system: IGROV1 ovarian
[21] = system: K-562 leukemia
[22] = system: KM12 colon
[23] = system: KM20L2 colon
[24] = system: LOX IMVI melanoma
[25] = system: LXFL 529 NSCLC
[26] = system: M14 melanoma
[27] = system: M19-MEL melanoma
[28] = system: MALME-3M melanoma
[29] = system: MOLT-4 leukemia
[30] = system: NCI-H226 lung
[31] = system: NCI-H23 lung
[32] = system: NCI-H460 lung
[33] = system: NCI-H522 lung
[34] = system: OVCAR-3 ovarian
[35] = system: OVCAR-4 ovarian
[36] = system: OVCAR-5 ovarian
[37] = system: OVCAR-8 ovarian
[38] = system: RPMI-8226 leukemia
[39] = system: RXF 393 renal
[40] = system: RXF-631 renal
[41] = system: SF-268 CNS
[42] = system: SF-295 CNS
[43] = system: SF-539 CNS
[44] = system: SK-MEL-2 melanoma
[45] = system: SK-MEL-28 melanoma
[46] = system: SK-MEL-5 melanoma
[47] = system: SK-OV-3 ovarian
[48] = system: SN12C renal
[49] = system: SNB-19 CNS
[50] = system: SNB-78 CNS
[51] = system: SR leukemia
[52] = system: SW-620 colon
[53] = system: TK-10 renal
[54] = system: U251 CNS
[55] = system: UACC-257 melanoma
[56] = system: UACC-62 melanoma
[57] = system: UO-31 renal
[58] = system: SNB-75 CNS
[59] = system: XF 498 CNS

## O=C(/C=C\c1ccccc1O)c1ccc(O)cc1O
[1]
  TGI: > 100 µM
[2]
  TGI: > 100 µM
[3]
  TGI: > 100 µM
[4]
  TGI: > 100 µM
[5]
  TGI: > 100 µM
[6]
  TGI: > 100 µM
[7]
  TGI: 72.9 µM
[8]
  TGI: > 100 µM
[9]
  TGI: > 100 µM
[10]
  TGI: > 100 µM
[11]
  TGI: > 100 µM
[12]
  TGI: > 100 µM
[13]
  TGI: > 100 µM
[14]
  TGI: > 100 µM
[15]
  TGI: > 100 µM
[16]
  TGI: > 100 µM
[17]
  TGI: > 100 µM
[18]
  TGI: > 100 µM
[19]
  TGI: > 100 µM
[20]
  TGI: > 100 µM
[21]
  TGI: > 100 µM
[22]
  TGI: > 100 µM
[23]
  TGI: > 100 µM
[24]
  TGI: > 100 µM
[25]
  TGI: > 100 µM
[26]
  TGI: > 100 µM
[27]
  TGI: > 100 µM
[28]
  TGI: > 100 µM
[29]
  TGI: > 100 µM
[30]
  TGI: > 100 µM
[31]
  TGI: > 100 µM
[32]
  TGI: > 100 µM
[33]
  TGI: > 100 µM
[34]
  TGI: > 100 µM
[35]
  TGI: > 100 µM
[36]
  TGI: > 100 µM
[37]
  TGI: > 100 µM
[38]
  TGI: > 100 µM
[39]
  TGI: > 100 µM
[40]
  TGI: > 100 µM
[41]
  TGI: > 100 µM
[42]
  TGI: > 100 µM
[43]
  TGI: > 100 µM
[44]
  TGI: > 100 µM
[45]
  TGI: > 100 µM
[46]
  TGI: > 100 µM
[47]
  TGI: > 100 µM
[48]
  TGI: > 100 µM
[49]
  TGI: > 100 µM
[50]
  TGI: > 100 µM
[51]
  TGI: > 100 µM
[52]
  TGI: 22.7 µM
[53]
  TGI: > 100 µM
[54]
  TGI: > 100 µM
[55]
  TGI: > 100 µM
[56]
  TGI: > 100 µM
[57]
  TGI: > 100 µM

## NNC(=O)C(=O)N/N=C(\CCCC(=O)Nc1ccc(Cl)cc1)CC(=O)c1ccc(F)cc1
[1]
  TGI: > 100 µM
[2]
  TGI: 88.6 µM
[3]
  TGI: > 100 µM
[4]
  TGI: > 100 µM
[6]
  TGI: > 100 µM
[7]
  TGI: > 100 µM
[8]
  TGI: > 100 µM
[9]
  TGI: > 100 µM
[11]
  TGI: > 100 µM
[12]
  TGI: > 100 µM
[13]
  TGI: > 100 µM
[15]
  TGI: > 100 µM
[16]
  TGI: > 100 µM
[17]
  TGI: > 100 µM
[18]
  TGI: > 100 µM
[19]
  TGI: > 100 µM
[20]
  TGI: > 100 µM
[22]
  TGI: > 100 µM
[23]
  TGI: > 100 µM
[24]
  TGI: > 100 µM
[25]
  TGI: > 100 µM
[26]
  TGI: > 100 µM
[27]
  TGI: > 100 µM
[28]
  TGI: > 100 µM
[29]
  TGI: > 100 µM
[30]
  TGI: > 100 µM
[31]
  TGI: > 100 µM
[32]
  TGI: > 100 µM
[34]
  TGI: > 100 µM
[35]
  TGI: > 100 µM
[36]
  TGI: > 100 µM
[37]
  TGI: > 100 µM
[38]
  TGI: > 100 µM
[39]
  TGI: > 100 µM
[40]
  TGI: > 100 µM
[41]
  TGI: > 100 µM
[42]
  TGI: > 100 µM
[44]
  TGI: > 100 µM
[45]
  TGI: > 100 µM
[46]
  TGI: > 100 µM
[48]
  TGI: > 100 µM
[49]
  TGI: > 100 µM
[58]
  TGI: > 100 µM
[50]
  TGI: > 100 µM
[52]
  TGI: > 100 µM
[53]
  TGI: > 100 µM
[54]
  TGI: > 100 µM
[55]
  TGI: > 100 µM
[56]
  TGI: 78.5 µM
[57]
  TGI: > 100 µM
[59]
  TGI: > 100 µM

## CC(C)(C)[Si](OC1CCOC1=O)(c1ccccc1)c1ccccc1 (stereo not drawn)
[2]
  TGI: 63.8 µM
[3]
  TGI: 62.7 µM
[4]
  TGI: 99.6 µM
[6]
  TGI: > 100 µM
[7]
  TGI: > 10 µM
[8]
  TGI: > 100 µM
[11]
  TGI: > 100 µM
[12]
  TGI: 47 µM
[13]
  TGI: 26.6 µM
[14]
  TGI: 61.5 µM
[15]
  TGI: > 100 µM
[16]
  TGI: 80.9 µM
[18]
  TGI: > 10 µM
[19]
  TGI: 32.3 µM
[20]
  TGI: > 100 µM
[22]
  TGI: > 10 µM
[23]
  TGI: 35.6 µM
[24]
  TGI: 32.2 µM
[25]
  TGI: > 100 µM
[26]
  TGI: 38.4 µM
[27]
  TGI: 39.1 µM
[28]
  TGI: 45.1 µM
[29]
  TGI: 59 µM
[31]
  TGI: 77.1 µM
[32]
  TGI: 49.3 µM
[33]
  TGI: 38 µM
[34]
  TGI: 27.1 µM
[36]
  TGI: > 100 µM
[37]
  TGI: 70.9 µM
[38]
  TGI: > 100 µM
[40]
  TGI: 98.8 µM
[41]
  TGI: > 100 µM
[42]
  TGI: 60.2 µM
[43]
  TGI: 72.3 µM
[44]
  TGI: 32.5 µM
[45]
  TGI: 62.6 µM
[46]
  TGI: 26.1 µM
[47]
  TGI: > 100 µM
[48]
  TGI: 33.5 µM
[49]
  TGI: > 100 µM
[58]
  TGI: > 100 µM
[50]
  TGI: > 100 µM
[51]
  TGI: > 10 µM
[52]
  TGI: > 100 µM
[53]
  TGI: 84.6 µM
[54]
  TGI: 30.1 µM
[55]
  TGI: 50.4 µM
[56]
  TGI: 29.3 µM
[57]
  TGI: > 100 µM
[59]
  TGI: 24.2 µM
